Assay results as given in the supplement of paper PMC11451515.

Key:
Settings in all cases: 48 h
[1] = tested on: P12-Ichikawa; experiment: AUC of viability dose-response curve (% viability x log10 dose units); higher = less sensitive
Procedure, shortened: (§1)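 Leukemia cells adapted to each medium were seeded in 1536-well plates (500 or 1000 cells/well) and given library compounds in DMSO for 48 h at 37°C. The 11 threefold doses spanned 47 μM to 0.79 nM, and CellTiter-Glo One luminescence was normalised per plate to DMSO and cell-free wells before four-parameter log-logistic fitting on log10 dose. Area under the curve was integrated with the trapezoidal rule, scaling curves above full viability and removing curves that failed quality control.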

[2] = tested on: SEM cells; experiment: as above
Procedure, shortened: as §1

[3] = tested on: NOMO1; experiment: as above
Procedure, shortened: as §1

[4] = tested on: P12-Ichikawa; experiment: cell viability relative to DMSO control; higher = less cytotoxic
Procedure, shortened: (§2)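 NOMO1 or SEM (500 cells/well) or P12-Ichikawa (1000 cells/well) leukemia cells were adapted for at least four passages in each medium. They were seeded in 1536-well plates (5 μl) and pin-dosed with library compounds in DMSO over an 11-point threefold series, 47 μM to 0.79 nM. CellTiter-Glo One luminescence was read after 48 h at 37°C. Viability is the per-plate percentage relative to DMSO wells, with cell-free wells as background.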

[5] = tested on: SEM cells; experiment: as above
Procedure, shortened: as §2

[6] = tested on: NOMO1; experiment: as above
Procedure, shortened: as §2

CC(C)N(CC[C@H](c1ccccc1)c1cc(CO)ccc1O)C(C)C
AUC of viability dose-response curve
Settings | [1] | [2] | [3]
HPLM + 10% dialyzed FBS | 464 | 462 | 455
RPMI 5 mM glucose + 10% FBS | 461 | 473 | 468
RPMI 5 mM glucose + 10% dialyzed FBS | 466 | 461 | 462

cell viability [%], HPLM + 10% dialyzed FBS
Settings | [4] | [5]
0.000781 µM | 127 | 106
0.00234 µM | 123 | 118
0.00702 µM | 120 | 125
0.0211 µM | 126 | 141
0.0632 µM | 139 | 131
0.19 µM | 137 | 139
0.569 µM | 140 | 129
1.71 µM | 138 | 134
5.12 µM | 129 | 151
15.4 µM | 128 | 135
46.1 µM | 135 | 119

CC(C)(O)Cn1c(NC(=O)c2ccc(-c3cn[nH]c3)s2)nc2cc(CN3CCOCC3)ccc21
AUC of viability dose-response curve
Settings | [1] | [2] | [3]
HPLM + 10% dialyzed FBS | 365 | 226 | 352
RPMI 5 mM glucose + 10% FBS | 364 | 206 | 369
RPMI 5 mM glucose + 10% dialyzed FBS | 364 | 207 | 368

CC(=O)Nc1ccc(O)cc1
AUC of viability dose-response curve
Settings | [1] | [2] | [3]
HPLM + 10% dialyzed FBS | 455 | 472 | 464
RPMI 5 mM glucose + 10% FBS | 458 | 476 | 459
RPMI 5 mM glucose + 10% dialyzed FBS | 470 | 467 | 463

CCC\C1=C\C(=O)NC(=S)N1
AUC of viability dose-response curve
Settings | HPLM + 10% dialyzed FBS | RPMI 5 mM glucose + 10% FBS | RPMI 5 mM glucose + 10% dialyzed FBS
[1] | 413 | 399 | 425
[3] | 407 | 421 | 452

cell viability [%]
Settings | [4] | [5] | [6]
HPLM + 10% dialyzed FBS, 0.000781 µM | 99.4 | 71.1 | 81.7
HPLM + 10% dialyzed FBS, 0.00234 µM | 107 | 74.2 | 104
HPLM + 10% dialyzed FBS, 0.00702 µM | 109 | 98.3 | 112
HPLM + 10% dialyzed FBS, 0.0211 µM | 111 | 30.6 | 131
HPLM + 10% dialyzed FBS, 0.0632 µM | 120 | 119 | 113
HPLM + 10% dialyzed FBS, 0.19 µM | 120 | 91.1 | 126
HPLM + 10% dialyzed FBS, 0.569 µM | 94.2 | 7.27 | 121
HPLM + 10% dialyzed FBS, 1.71 µM | 110 | 27.9 | 133
HPLM + 10% dialyzed FBS, 5.12 µM | 87.6 | 79.2 | 72.3
HPLM + 10% dialyzed FBS, 15.4 µM | 38.4 | 51.5 | 35
HPLM + 10% dialyzed FBS, 46.1 µM | 8.65 | 75.9 | 25.8
RPMI 5 mM glucose + 10% FBS, 0.000781 µM | 107 | 63.3 | 101
RPMI 5 mM glucose + 10% FBS, 0.00234 µM | 112 | 91.9 | 113
RPMI 5 mM glucose + 10% FBS, 0.00702 µM | 110 | 102 | 123
RPMI 5 mM glucose + 10% FBS, 0.0211 µM | 118 | 28 | 123
RPMI 5 mM glucose + 10% FBS, 0.0632 µM | 119 | 121 | 114
RPMI 5 mM glucose + 10% FBS, 0.19 µM | 112 | 124 | 109
RPMI 5 mM glucose + 10% FBS, 0.569 µM | 85 | 6.88 | 116
RPMI 5 mM glucose + 10% FBS, 1.71 µM | 104 | 22.9 | 119
RPMI 5 mM glucose + 10% FBS, 5.12 µM | 78.9 | 93.1 | 111
RPMI 5 mM glucose + 10% FBS, 15.4 µM | 40.8 | 52.2 | 29.4
RPMI 5 mM glucose + 10% FBS, 46.1 µM | 7.58 | 65 | 20.9
RPMI 5 mM glucose + 10% dialyzed FBS, 0.000781 µM | 102 | 69.2 | 103
RPMI 5 mM glucose + 10% dialyzed FBS, 0.00234 µM | 105 | 74.8 | 122
RPMI 5 mM glucose + 10% dialyzed FBS, 0.00702 µM | 103 | 91.7 | 115
RPMI 5 mM glucose + 10% dialyzed FBS, 0.0211 µM | 115 | 54.4 | 118
RPMI 5 mM glucose + 10% dialyzed FBS, 0.0632 µM | 118 | 89.8 | 109
RPMI 5 mM glucose + 10% dialyzed FBS, 0.19 µM | 119 | 125 | 109
RPMI 5 mM glucose + 10% dialyzed FBS, 0.569 µM | 99.7 | 6.6 | 113
RPMI 5 mM glucose + 10% dialyzed FBS, 1.71 µM | 113 | 20.3 | 123
RPMI 5 mM glucose + 10% dialyzed FBS, 5.12 µM | 83.9 | 92.4 | 99.7
RPMI 5 mM glucose + 10% dialyzed FBS, 15.4 µM | 68.3 | 43.1 | 100
RPMI 5 mM glucose + 10% dialyzed FBS, 46.1 µM | 9.42 | 50.8 | 31.7

CCc1nc(-c2cccc(C)c2)c(-c2ccnc(NC(=O)c3ccccc3)c2)s1
AUC of viability dose-response curve
Settings | [1] | [2] | [3]
HPLM + 10% dialyzed FBS | 449 | 463 | 461
RPMI 5 mM glucose + 10% FBS | 456 | 452 | 454
RPMI 5 mM glucose + 10% dialyzed FBS | 450 | 449 | 443

CC(C)n1cnc2c(NCCCCCCNC(=O)OC(C)(C)C)nc(NCCO)nc21
AUC of viability dose-response curve
Settings | [1] | [2] | [3]
HPLM + 10% dialyzed FBS | 464 | 453 | 443
RPMI 5 mM glucose + 10% FBS | 449 | 462 | 455
RPMI 5 mM glucose + 10% dialyzed FBS | 449 | 454 | 469

COc1ccc2c(c1)c(CC(=O)O)c(C)n2C(=O)c1ccc(Cl)cc1
AUC of viability dose-response curve
Settings | [1] | [2] | [3]
HPLM + 10% dialyzed FBS | 440 | 459 | 461
RPMI 5 mM glucose + 10% FBS | 466 | 432 | 473
RPMI 5 mM glucose + 10% dialyzed FBS | 466 | 466 | 460

CC(/C=C1\SC(=S)N(CC(=O)O)C1=O)=C\c1ccccc1
AUC of viability dose-response curve
Settings | [1] | [2] | [3]
HPLM + 10% dialyzed FBS | 461 | 471 | 452
RPMI 5 mM glucose + 10% FBS | 440 | 420 | 454
RPMI 5 mM glucose + 10% dialyzed FBS | 457 | 476 | 472

NC/1=N/C(=O)N(/C=C1F)[C@H]2CS[C@H](CO)O2
AUC of viability dose-response curve
Settings | HPLM + 10% dialyzed FBS | RPMI 5 mM glucose + 10% FBS | RPMI 5 mM glucose + 10% dialyzed FBS
[2] | 392 | 442 | 418
[3] | 472 | 449 | 462

cell viability [%]
Settings | HPLM + 10% dialyzed FBS | RPMI 5 mM glucose + 10% FBS | RPMI 5 mM glucose + 10% dialyzed FBS
[5], 0.000781 µM | 83.9 | – | 101
[5], 0.00234 µM | 107 | – | 118
[5], 0.00702 µM | 107 | – | 115
[5], 0.0211 µM | 115 | – | 152
[5], 0.0632 µM | 124 | – | 126
[5], 0.19 µM | 116 | – | 121
[5], 0.569 µM | 123 | – | 144
[5], 1.71 µM | 126 | – | 131
[5], 5.12 µM | 143 | – | 137
[5], 15.4 µM | 142 | – | 144
[5], 46.1 µM | 148 | – | 153
[6], 0.000781 µM | – | 108 | –
[6], 0.00234 µM | – | 121 | –
[6], 0.00702 µM | – | 121 | –
[6], 0.0211 µM | – | 127 | –
[6], 0.0632 µM | – | 133 | –
[6], 0.19 µM | – | 157 | –
[6], 0.569 µM | – | 141 | –
[6], 1.71 µM | – | 139 | –
[6], 5.12 µM | – | 131 | –
[6], 15.4 µM | – | 151 | –
[6], 46.1 µM | – | 141 | –
